Measurements as given in patent US20100099561A1, “HETEROBICYCLIC ALKYLTHIO-BRIDGED ISOXAZOLINES” (E.I. DU PONT DE NEMOURS AND COMPANY, priority 2008, published 2010).

How the values were obtained:
Format in all cases: in vivo
[1] = system: barnyardgrass (Echinochloa crus-galli); assay: Test A postemergence, barnyardgrass; conditions: 0 to 100 scale (0 no effect, 100 complete control)
Description: (§1) Seeds of barnyardgrass (Echinochloa crus-galli), large crabgrass (Digitaria sanguinalis), giant foxtail (Setaria faberi), morningglory (Ipomoea spp.), pigweed (Amaranthus retroflexus), velvetleaf (Abutilon theophrasti), wheat (Triticum aestivum), and corn (Zea mays) were planted into a blend of loam soil and sand and treated preemergence with a directed soil spray using test chemicals formulated in a non-phytotoxic solvent mixture which included a surfactant. At the same time these species were also treated with postemergence applications of test compounds formulated in the same manner. Plants ranged in height from two to ten cm and were in the one- to two-leaf stage for the postemergence treatment. Treated plants and untreated controls were maintained in a greenhouse for approximately ten days, after which time all treated plants were compared to untreated controls and visually evaluated for injury. Plant response ratings, summarized in Table A, are based on a 0 to 100 scale where 0 is no effect and 100 is complete control. A dash (-) response means no test result.

[2] = system: giant foxtail (Setaria faberi); assay: Test A preemergence, giant foxtail; conditions: 0 to 100 scale (0 no effect, 100 complete control)
Description: as §1

rice (Oryza sativa) = assay: Test B flooded paddy test, rice; conditions: Flood, scale 0 to 100
Description: (§2) Plant species in the flooded paddy test consisted of rice (Oryza sativa), umbrella sedge (Cyperus difformis), ducksalad (Heteranthera limosa) and barnyardgrass (Echinochloa crus-galli) grown to the 2-leaf stage for testing. At time of treatment, test pots were flooded to 3 cm above the soil surface, treated by application of test compounds directly to the paddy water, and then maintained at that water depth for the duration of the test. Treated plants and controls were maintained in a greenhouse for 13 to 15 days, after which time all species were compared to controls and visually evaluated. Plant response ratings, summarized in Table B, are based on a scale of 0 to 100 where 0 is no effect and 100 is complete control. A dash (-) response means no test result.

[3] = system: pigweed (Amaranthus retroflexus); assay: Test A preemergence, pigweed; conditions: 0 to 100 scale (0 no effect, 100 complete control)
Description: as §1

[4] = system: ducksalad (Heteranthera limosa); assay: Test B flooded paddy test, ducksalad; conditions: Flood, scale 0 to 100
Description: as §2

[5] = system: velvetleaf (Abutilon theophrasti); assay: Test A preemergence, velvetleaf; conditions: 0 to 100 scale (0 no effect, 100 complete control)
Description: as §1

corn (Zea mays) [6] = assay: Test A postemergence, corn; conditions: 0 to 100 scale (0 no effect, 100 complete control)
Description: as §1

[7] = system: morningglory (Ipomoea spp.); assay: Test A preemergence, morningglory; conditions: 0 to 100 scale (0 no effect, 100 complete control)
Description: as §1

[8] = system: morningglory (Ipomoea spp.); assay: Test A postemergence, morningglory; conditions: 0 to 100 scale (0 no effect, 100 complete control)
Description: as §1

[9] = system: umbrella sedge (Cyperus difformis); assay: Test B flooded paddy test, umbrella sedge; conditions: Flood, scale 0 to 100
Description: as §2

[10] = system: barnyardgrass (Echinochloa crus-galli); assay: Test B flooded paddy test, barnyardgrass; conditions: Flood
Description: as §2

[11] = system: large crabgrass (Digitaria sanguinalis); assay: Test A preemergence, large crabgrass; conditions: 0 to 100 scale (0 no effect, 100 complete control)
Description: as §1

[12] = system: wheat (Triticum aestivum); assay: Test A preemergence, wheat; conditions: 0 to 100 scale (0 no effect, 100 complete control)
Description: as §1

[13] = system: pigweed (Amaranthus retroflexus); assay: Test A postemergence, pigweed; conditions: 0 to 100 scale (0 no effect, 100 complete control)
Description: as §1

[14] = system: giant foxtail (Setaria faberi); assay: Test A postemergence, giant foxtail; conditions: 0 to 100 scale (0 no effect, 100 complete control)
Description: as §1

corn (Zea mays) [15] = assay: Test A preemergence, corn; conditions: 0 to 100 scale (0 no effect, 100 complete control)
Description: as §1

[16] = system: barnyardgrass (Echinochloa crus-galli); assay: Test A preemergence, barnyardgrass; conditions: 0 to 100 scale (0 no effect, 100 complete control)
Description: as §1

[17] = system: velvetleaf (Abutilon theophrasti); assay: Test A postemergence, velvetleaf; conditions: 0 to 100 scale (0 no effect, 100 complete control)
Description: as §1

[18] = system: wheat (Triticum aestivum); assay: Test A postemergence, wheat; conditions: 0 to 100 scale (0 no effect, 100 complete control)
Description: as §1

[19] = system: large crabgrass (Digitaria sanguinalis); assay: Test A postemergence, large crabgrass; conditions: 0 to 100 scale (0 no effect, 100 complete control)
Description: as §1

[20] = 250 g ai/ha, scale 0 to 100 (0 no effect, 100 complete control)

CC1(C)CC([S+]([O-])Cc2c(C(F)(F)C(F)(F)F)nc3n(c2=O)CCCC3)=NO1 (centres unmarked) [Compound 19]
Plant response rating, Barnyardgrass ([1]; 125 g ai/ha): 10 | Plant response rating, Barnyardgrass ([1]; 500 g ai/ha): 70 | Plant response rating, Foxtail, Giant ([2]; 125 g ai/ha): 0 | Plant response rating, Foxtail, Giant ([2]; 500 g ai/ha): 80 | Plant response rating, Rice (rice (Oryza sativa); 31 g ai/ha): 0 | Plant response rating, Rice (rice (Oryza sativa); 62 g ai/ha): 0 | Plant response rating, Rice (rice (Oryza sativa); 125 g ai/ha): 0 | Plant response rating, Rice (rice (Oryza sativa); 250 g ai/ha): 0 | Plant response rating, Pigweed ([3]; 125 g ai/ha): 0 | Plant response rating, Pigweed ([3]; 500 g ai/ha): 20 | Plant response rating, Ducksalad ([4]; 31 g ai/ha): 0 | Plant response rating, Ducksalad ([4]; 62 g ai/ha): 0 | Plant response rating, Ducksalad ([4]; 125 g ai/ha): 0 | Plant response rating, Ducksalad ([4]; 250 g ai/ha): 0 | Plant response rating, Velvetleaf ([5]; 125 g ai/ha): 0 | Plant response rating, Velvetleaf ([5]; 500 g ai/ha): 0 | Plant response rating, Corn (corn (Zea mays) [6]; 125 g ai/ha): 0 | Plant response rating, Corn (corn (Zea mays) [6]; 500 g ai/ha): 40 | Plant response rating, Morningglory ([7]; 125 g ai/ha): 0 | Plant response rating, Morningglory ([7]; 500 g ai/ha): 60 | Plant response rating, Morningglory ([8]; 125 g ai/ha): 0 | Plant response rating, Morningglory ([8]; 500 g ai/ha): 20 | Plant response rating, Sedge, Umbrella ([9]; 31 g ai/ha): 0 | Plant response rating, Sedge, Umbrella ([9]; 62 g ai/ha): 0 | Plant response rating, Sedge, Umbrella ([9]; 125 g ai/ha): 0 | Plant response rating, Sedge, Umbrella ([9]; 250 g ai/ha): 0 | Plant response rating, Barnyardgrass ([10]; 31 g ai/ha, scale 0 to 100): 0 | Plant response rating, Barnyardgrass ([10]; 62 g ai/ha, scale 0 to 100): 0 | Plant response rating, Barnyardgrass ([10]; 125 g ai/ha, scale 0 to 100): 0 | Plant response rating, Barnyardgrass [10, 20]: 0 | Plant response rating, Crabgrass, Large ([11]; 125 g ai/ha): 0 | Plant response rating, Crabgrass, Large ([11]; 500 g ai/ha): 80 | Plant response rating, Wheat ([12]; 125 g ai/ha): 0 | Plant response rating, Wheat ([12]; 500 g ai/ha): 20 | Plant response rating, Pigweed ([13]; 125 g ai/ha): 0 | Plant response rating, Pigweed ([13]; 500 g ai/ha): 10 | Plant response rating, Foxtail, Giant ([14]; 125 g ai/ha): 0 | Plant response rating, Foxtail, Giant ([14]; 500 g ai/ha): 50 | Plant response rating, Corn (corn (Zea mays) [15]; 500 g ai/ha): 20 | Plant response rating, Barnyardgrass ([16]; 125 g ai/ha): 0 | Plant response rating, Barnyardgrass ([16]; 500 g ai/ha): 80 | Plant response rating, Velvetleaf ([17]; 125 g ai/ha): 0 | Plant response rating, Velvetleaf ([17]; 500 g ai/ha): 20 | Plant response rating, Wheat ([18]; 125 g ai/ha): 0 | Plant response rating, Wheat ([18]; 500 g ai/ha): 20 | Plant response rating, Crabgrass, Large ([19]; 125 g ai/ha): 0 | Plant response rating, Crabgrass, Large ([19]; 500 g ai/ha): 30

Cc1con2c(=O)c(CS(=O)(=O)C3=NOC(C)(C)C3)c(C(F)(F)F)nc12 [Compound 56]
Plant response rating, Barnyardgrass ([1]; 125 g ai/ha): 70 | Plant response rating, Barnyardgrass ([1]; 500 g ai/ha): 80 | Plant response rating, Foxtail, Giant ([2]; 125 g ai/ha): 20 | Plant response rating, Foxtail, Giant ([2]; 500 g ai/ha): 90 | Plant response rating, Rice (rice (Oryza sativa); 31 g ai/ha): 0 | Plant response rating, Rice (rice (Oryza sativa); 62 g ai/ha): 0 | Plant response rating, Rice (rice (Oryza sativa); 125 g ai/ha): 0 | Plant response rating, Rice (rice (Oryza sativa); 250 g ai/ha): 0 | Plant response rating, Pigweed ([3]; 125 g ai/ha): 0 | Plant response rating, Pigweed ([3]; 500 g ai/ha): 0 | Plant response rating, Ducksalad ([4]; 31 g ai/ha): 0 | Plant response rating, Ducksalad ([4]; 62 g ai/ha): 0 | Plant response rating, Ducksalad ([4]; 125 g ai/ha): 0 | Plant response rating, Ducksalad ([4]; 250 g ai/ha): 0 | Plant response rating, Velvetleaf ([5]; 125 g ai/ha): 0 | Plant response rating, Velvetleaf ([5]; 500 g ai/ha): 0 | Plant response rating, Corn (corn (Zea mays) [6]; 125 g ai/ha): 0 | Plant response rating, Corn (corn (Zea mays) [6]; 500 g ai/ha): 0 | Plant response rating, Morningglory ([7]; 125 g ai/ha): 0 | Plant response rating, Morningglory ([7]; 500 g ai/ha): 0 | Plant response rating, Morningglory ([8]; 125 g ai/ha): 10 | Plant response rating, Morningglory ([8]; 500 g ai/ha): 30 | Plant response rating, Sedge, Umbrella ([9]; 31 g ai/ha): 0 | Plant response rating, Sedge, Umbrella ([9]; 62 g ai/ha): 0 | Plant response rating, Sedge, Umbrella ([9]; 125 g ai/ha): 20 | Plant response rating, Sedge, Umbrella ([9]; 250 g ai/ha): 30 | Plant response rating, Barnyardgrass ([10]; 31 g ai/ha, scale 0 to 100): 0 | Plant response rating, Barnyardgrass ([10]; 62 g ai/ha, scale 0 to 100): 0 | Plant response rating, Barnyardgrass ([10]; 125 g ai/ha, scale 0 to 100): 0 | Plant response rating, Barnyardgrass [10, 20]: 0 | Plant response rating, Crabgrass, Large ([11]; 125 g ai/ha): 0 | Plant response rating, Crabgrass, Large ([11]; 500 g ai/ha): 90 | Plant response rating, Wheat ([12]; 125 g ai/ha): 0 | Plant response rating, Wheat ([12]; 500 g ai/ha): 0 | Plant response rating, Pigweed ([13]; 125 g ai/ha): 0 | Plant response rating, Pigweed ([13]; 500 g ai/ha): 10 | Plant response rating, Foxtail, Giant ([14]; 125 g ai/ha): 40 | Plant response rating, Foxtail, Giant ([14]; 500 g ai/ha): 80 | Plant response rating, Corn (corn (Zea mays) [15]; 125 g ai/ha): 0 | Plant response rating, Corn (corn (Zea mays) [15]; 500 g ai/ha): 0 | Plant response rating, Barnyardgrass ([16]; 125 g ai/ha): 0 | Plant response rating, Barnyardgrass ([16]; 500 g ai/ha): 90 | Plant response rating, Velvetleaf ([17]; 125 g ai/ha): 0 | Plant response rating, Velvetleaf ([17]; 500 g ai/ha): 0 | Plant response rating, Wheat ([18]; 125 g ai/ha): 0 | Plant response rating, Wheat ([18]; 500 g ai/ha): 0 | Plant response rating, Crabgrass, Large ([19]; 125 g ai/ha): 60 | Plant response rating, Crabgrass, Large ([19]; 500 g ai/ha): 80
